Reference: patent US20250188085A1, “COMPOSITIONS AND METHODS FOR INHIBITION OF RAS” (THERAS, INC., priority 2022, published 2025)

Columns and labels:
[1] = target: T1, GDP-loaded KRAS4b (amino acids 1-169) G12C/C118S protein (Homo sapiens, UniProt P01116, C118S/G12C); test: Covalent cysteine 12 modification by MALDI-TOF MS, GDP-loaded KRAS G12C; format: binding; settings: 15 minutes reaction time point
T1 construct: KRAS4b (amino acids 1-169) G12C/C118S protein; made in house
In short: (§1)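 KRAS4b 1-169 G12C/C118S loaded with GDP, GppNHp or GTP was used at 1 μM in 20 mM HEPES, 150 mM NaCl, 1 mM MgCl2, pH 7.3, and incubated with compound (5 mM DMSO stock) at room temperature in the dark. % modification at 15 min is adduct peak height over total protein peak heights by linear-mode MALDI-TOF.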

[2] = target: T2, Avi-KRAS G12C (1-169) GppNHp/RAF1 RBD-3×FLAG (52-151) (Homo sapiens, UniProt P01116, G12C); test: Raf1 RBD-KRAS G12C-GppNHp disruption (protein:protein interaction HTRF assay); format: biochemical
T2 construct: Avi-KRAS G12C (1-169) GppNHp/RAF1 RBD-3×FLAG (52-151)
In short: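 HTRF measuring disruption of 50 nM Avi-KRAS G12C (1-169) loaded with GppNHp binding RAF1 RBD-3×FLAG (52-151), in pH 7.5 Tris buffer with 5 mM MgCl2, 0.1% BSA, 10% DMSO. KRAS preincubated with compound 1 h, then RBD 1 h, then detection reagents 1 h, all at room temperature. Compound titration 30-0.02 μM; activity expressed as percent of DMSO control.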

pERK in NCI-H358 cells = test: Cell-based pERK HTRF assay; settings: Homo sapiens, NCI-H358, 0.5 h, 30 min incubation, read-out: pERK in NCI-H358 cell inhibition IC50
In short: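 Cells seeded at 4×10^4/well in RPMI with 10% FBS, then next day treated for 30 min with a 9-point, 3-fold series from 75 μM top concentration at 0.25% DMSO. Lysates were read for pERK by HTRF (d2/Eu cryptate antibodies) after 4–24 h at room temperature, emission at 615 nm.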

[3] = target: T3, GppNHp-loaded KRAS4b (amino acids 1-169) G12C/C118S protein (Homo sapiens, UniProt P01116, C118S/G12C); test: Covalent cysteine 12 modification by MALDI-TOF MS, GppNHp-loaded KRAS G12C; format: binding; settings: 15 minutes reaction time point
T3 construct: KRAS4b (amino acids 1-169) G12C/C118S protein; made in house
In short: as §1

[4] = target: T4, GTP-loaded KRAS4b (amino acids 1-169) G12C/C118S protein (Homo sapiens, UniProt P01116, C118S/G12C); test: Covalent cysteine 12 modification by MALDI-TOF MS, GTP-loaded KRAS G12C; format: binding; settings: 15 minutes reaction time point
T4 construct: KRAS4b (amino acids 1-169) G12C/C118S protein; made in house
In short: as §1

## C=CC(=O)N1CC[C@@H](Oc2nc(OC[C@@]34CCCN3C[C@H](F)C4)nc3c(F)c(-c4ccc(F)c5sc(N)c(C#N)c45)ccc23)[C@@H]1C [Compound 118]
[1]
  GDP-KRAS G12C percent of modification: A (percent of modification ≥70%)
[2]
  IC50: 500 to 5000 nM
pERK in NCI-H358 cells
  IC50: > 1000 nM
[3]
  GppNHp-KRAS G12C percent of modification: D (percent of modification <10%)
[4]
  GTP-KRAS G12C percent of modification: D (percent of modification <10%)

## C=CC(=O)N1CC[C@@H](Oc2nc(OC[C@@]34CCCN3C[C@H](F)C4)nc3cc(-c4ccc(F)c5sc(N)c(C#N)c45)c(C(F)(F)F)nc23)C1 [Compound 55, 4-(4-(((R)-1-acryloylpyrrolidin-3-yl)oxy)-2-(((2R,7aS)-2-fluorotetrahydro-1H-pyrrolizin-7a (5H)-yl)methoxy)-6-(trifluoromethyl)pyrido[3,2-d]pyrimidin-7-yl)-2-amino-7-fluorobenzo[b]thiophene-3-carbonitrile]
[1]
  GDP-KRAS G12C percent of modification: C (10%≤modification <50%)
[2]
  IC50: ≤ 500 nM
pERK in NCI-H358 cells
  IC50: ≤ 100 nM
[3]
  GppNHp-KRAS G12C percent of modification: C (10%≤modification <50%)
[4]
  GTP-KRAS G12C percent of modification: D (percent of modification <10%)
